Assay results from PubChem BioAssay AID1963430 (Molecular Pharmacology Branch, DTP, NCI, 2024).

Test system: 521955-158-R2-J5-PDC complex spheroid growth, % test/control
Test: Anticancer human tumor 521955-158-R2-J5-PDC patient-derived pancreatic carcinoma cell line growth inhibition [Asc]
Settings: for IC50: curve of first compound; for viability, T/C: stronger effect = lower value
How it was run: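 Stromal components (HUVEC and hMSC) are co-assembled with the cancer cells into multicellular spheroids. Drugs are then added singly or paired, at concentrations falling by half-log increments from a clinically achievable maximum, capped at 10 microM without known Cmax.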
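Also: spheroids exposed to agents for 7 days before readout.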
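For viability, T/C in this document: 100% = DMSO vehicle control viability.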

**Q.** C#Cc1c(F)ccc2cc(O)cc(-c3ncc4c(N5CC6CCC(C5)N6)nc(OCC56CCCN5CC(F)C6)nc4c3F)c12 (stereo not given) + CCN1C(C(=O)NC23CCC(C(=O)O)(CC2)CC3)C(c2cccc(Cl)c2F)C2(C(=O)Nc3cc(Cl)ccc32)C12CCCCC2 was tested. Which IC50 (second compound 0.03 µM) did it give?
**A.** Its IC50 is less than 31.6 nM.

**Q.** And the IC50 (second compound 0.0949 µM)?
**A.** Its IC50 is less than 31.6 nM.

**Q.** What about the IC50 (second compound 0.3 µM) of the same molecule?
**A.** The IC50 was less than 31.6 nM.

**Q.** And the IC50 (second compound 0.949 µM)?
**A.** Its IC50 is less than 31.6 nM.

**Q.** What about the IC50 (second compound 3 µM) of the same molecule?
**A.** The IC50 was 4990 nM.

**Q.** What about the viability, T/C (second compound 0.03 µM, first compound 0.0316 µM) of the same molecule?
**A.** Its viability, T/C is 53%.

**Q.** What about the viability, T/C (second compound 0.03 µM, first compound 0.1 µM) of the same molecule?
**A.** Its viability, T/C is 41.6%.

**Q.** What about the viability, T/C (second compound 0.03 µM, first compound 0.316 µM) of the same molecule?
**A.** Its viability, T/C is 33.2%.

**Q.** And the viability, T/C (second compound 0.03 µM, first compound 1 µM)?
**A.** Its viability, T/C is 35.1%.

**Q.** What about the viability, T/C (second compound 0.03 µM, first compound 3.16 µM) of the same molecule?
**A.** The viability, T/C was 35.5%.

**Q.** What about the viability, T/C (second compound 0.03 µM, first compound 10 µM) of the same molecule?
**A.** Its viability, T/C is 32%.

**Q.** What about the viability, T/C (second compound 0.0949 µM, first compound 0.0316 µM) of the same molecule?
**A.** Its viability, T/C is 48.1%.

**Q.** And the viability, T/C (second compound 0.0949 µM, first compound 0.1 µM)?
**A.** The viability, T/C was 39.8%.

**Q.** And the viability, T/C (second compound 0.0949 µM, first compound 0.316 µM)?
**A.** Its viability, T/C is 44.4%.

**Q.** What about the viability, T/C (second compound 0.0949 µM, first compound 1 µM) of the same molecule?
**A.** The viability, T/C was 38%.

**Q.** And the viability, T/C (second compound 0.0949 µM, first compound 3.16 µM)?
**A.** Its viability, T/C is 41.7%.

**Q.** And the viability, T/C (second compound 0.0949 µM, first compound 10 µM)?
**A.** Its viability, T/C is 43.9%.

**Q.** What about the viability, T/C (second compound 0.3 µM, first compound 0.0316 µM) of the same molecule?
**A.** Its viability, T/C is 45.9%.

**Q.** What about the viability, T/C (second compound 0.3 µM, first compound 0.1 µM) of the same molecule?
**A.** The viability, T/C was 44%.

**Q.** And the viability, T/C (second compound 0.3 µM, first compound 0.316 µM)?
**A.** Its viability, T/C is 39.9%.

**Q.** And the viability, T/C (second compound 0.3 µM, first compound 1 µM)?
**A.** Its viability, T/C is 40.4%.

**Q.** And the viability, T/C (second compound 0.3 µM, first compound 3.16 µM)?
**A.** The viability, T/C was 42.9%.

**Q.** And the viability, T/C (second compound 0.3 µM, first compound 10 µM)?
**A.** The viability, T/C was 39.2%.

**Q.** What about the viability, T/C (second compound 0.949 µM, first compound 0.0316 µM) of the same molecule?
**A.** Its viability, T/C is 42.7%.

**Q.** And the viability, T/C (second compound 0.949 µM, first compound 0.1 µM)?
**A.** Its viability, T/C is 50.6%.

**Q.** What about the viability, T/C (second compound 0.949 µM, first compound 0.316 µM) of the same molecule?
**A.** The viability, T/C was 56.3%.

**Q.** And the viability, T/C (second compound 0.949 µM, first compound 1 µM)?
**A.** Its viability, T/C is 41.1%.

**Q.** And the viability, T/C (second compound 0.949 µM, first compound 3.16 µM)?
**A.** The viability, T/C was 54.8%.

**Q.** And the viability, T/C (second compound 0.949 µM, first compound 10 µM)?
**A.** The viability, T/C was 42.4%.

**Q.** And the viability, T/C (second compound 3 µM, first compound 0.0316 µM)?
**A.** The viability, T/C was 70.1%.

**Q.** What about the viability, T/C (second compound 3 µM, first compound 0.1 µM) of the same molecule?
**A.** The viability, T/C was 68.9%.

**Q.** And the viability, T/C (second compound 3 µM, first compound 0.316 µM)?
**A.** The viability, T/C was 66%.

**Q.** And the viability, T/C (second compound 3 µM, first compound 1 µM)?
**A.** The viability, T/C was 59.1%.

**Q.** What about the viability, T/C (second compound 3 µM, first compound 3.16 µM) of the same molecule?
**A.** Its viability, T/C is 55.1%.

**Q.** And the viability, T/C (second compound 3 µM, first compound 10 µM)?
**A.** Its viability, T/C is 43.8%.
